# Patent US20100111965A1, “COMBINATION THERAPY” (FUSION ANTIBODIES LIMITED, priority 2006, published 2010)
# Legend:
# HCT116 cells = assay: MTT assay, HCT116 cell proliferation; assay type: cell-based, human; conditions: siRNA 10 nM, CPT-11 3.5 μM, 48 hr, compared to untreated, mock, control siRNA
# Protocol: FIG. 8 illustrates HCT116 cell proliferation following AREG/HB-EGF silencing by siRNA and/or Chemotherapy treatment. Cells were transfected with AREG siRNA (10 nM), HB-EGF siRNA (10 nM) or a control siRNA (10 nM). […] Cell proliferation was analysed by MTT assay 48 hr after transfection/chemotherapy
# FIG. 28 illustrates HCT116 cell proliferation after treatment with AREG antibody. Cell proliferation was analysed by MTT assay 48 hr after treatment.
# FIG. 30 illustrates HCT116 cell proliferation after treatment with AREG antibody. Cell proliferation was analysed by MTT assay 48 hr after treatment.
# FIG. 31 illustrates HCT116 cell proliferation after treatment with AREG antibody. Cell proliferation was analysed by MTT assay 48 hr after treatment
# FIG. 33 illustrates HCT116 cell proliferation following HB-EGF silencing by siRNA and/or treatment with Anti AREG antibodies (6E11 1E92D8 & 6E11 1E9 106). Cells were transfected with HB-EGF siRNA (50 nM) or a control siRNA (50 nM). Cell proliferation was analysed by MTT assay 72 hr after transfection. […]
# Cell viability was assessed by 3-(4,5-dimethylthiazol-2-yl)-2,5-diphenyltetrazolium bromide (MTT, Sigma) assay (Mosmann, T. 1983. J. Immunol. Methods 65:55-63). […] Cell viability was determined by reading the absorbance of each well at 570 nm using a microplate reader (Tecan Sunrise, Biorad, UK).
# RKO +/+ = assay: Western blot of AREG protein in RKO lysates after chemotherapy; assay type: cell-based, human; conditions: RKO p53 wild type lysates; 48 hour treatment
# Protocol: FIG. 2 illustrates western blot analysis of AREG and gamma tubulin protein expression in HCT116 +/+ and RKO +/+ with/without a 48 hour CPT11 or 5-Fu treatment; HCT 116, RKO, HT 29 and H630 are human colorectal carcinoma cell lines. After different time exposure to chemotherapy the cells were harvested, and washed in 1×PBS. The cell pellet was then lysed in a suitable amount of 1×RIPA lysis buffer (150 mM NaCl, 10 mM Tris at pH 7.2, 0.1% SDS, 1.0% triton X-100 and 5 mM.EDTA) supplemented with protease inhibitors. The cell lysate was briefly vortexed, incubated on ice for 10 min and then centrifuged at 12,000 rpm to remove cell debris. Following centrifugation, the lysate supernatant was removed to a fresh eppendorf tube. Protein concentrations were assayed using the BCA Protein Assay (Pierce) according to the manufacturer's instructions. The absorbance of each sample at 620 nm was assayed using a microplate reader. A standard BSA curve was plotted for each experiment and the protein concentration of each sample calculated. To each sample an equal volume of 5× Western sample buffer and 10% of the final volume of β-mercaptoethanol (Sigma) was added. The samples were denatured at 95° C. for 5 minutes and placed on ice prior to loading onto SDS polyacrylamide gel (SDS PAGE). […] Protein bands were detected by exposure to autoradiograph which was subsequently developed. […]
# [1] = system: H460 lung carcinoma cell line; assay: FACS analysis of cell surface AREG in H460 with or without irinotecan; assay type: cell-based; conditions: 2.5 μM for 48 hours
# Protocol: Following treatment cells were stained with AREG monoclonal antibodies and analysed by FACS
# After 48 hours cells were washed in PBS and blocked for 20 minutes in Normal Goat Serum. 5×10^5 cells were incubated with AREG antibodies or isotype control for 2 hours and washed in PBS-T. The cells were incubated with a FITC conjugated goat anti-mouse antibody for 1 hour and washed in PBS-T before analysis on BD FACS canto.
smiles,measurement,setting,value
"CCc1c2c(nc3ccc(OC(=O)N4CCC(N5CCCCC5)CC4)cc13)-c1cc3c(c(=O)n1C2)COC(=O)[C@]3(O)CC [CPT-11, irinotecan]",effect on cell viability (MTT),HCT116 cells,no significant effect
same,AREG protein expression (western blot),RKO +/+,Enhanced AREG expression
same,"AREG surface expression levels (FACS), detected by clones 3H5 and 3F8",[1],up-regulation in expression levels
